For nine compounds, IC50 and EC50 results are on record in patent US10981932B2, “Macrocyclic indole derivatives” (Bayer Aktiengesellschaft, priority 2016, dated 2021).

Data set [1] relates to SUDHL5. Briefly: Anti-proliferative effect (CellTiter-Glo, 72 h), SUDHL5. The class given is cell-based. Conditions: SUDHL5 cells, antiproliferation, median, read-out: Antiproli SUDHL5 [M] (median). In a few lines:
(§1)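 Luminescence from CellTiter-Glo, read 10 min after reagent addition, reports viable cell content after 72 h of compound treatment at 37 °C. A reference plate read at day 0 gives the starting baseline.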

Data set [2] has as its system SUDHL5. Briefly: Induction of cytotoxicity (CellTiter-Glo, 5 h), SUDHL5.
The subject of a further data set is A2780. Briefly: Anti-proliferative effect (CellTiter-Glo, 72 h), A2780. It is filed as cell-based. Conditions: A2780 cells, median, read-out: IC50 antiproliferation assay A2780 [M] (median). In a few lines:
as §1

Data set [3] has as its system SUDHL10. In words: Induction of cytotoxicity (CellTiter-Glo, 5 h), SUDHL10.
In data set [4] the test system is SUDHL10. Briefly: Induction of caspase-3/7 activity (Caspase-Glo 3/7), SUDHL10. It is filed as cell-based. Conditions: caspase-3/7 induction, SUDHL10 cells, 3 h treatment, median. An outline of the steps: (§2)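 Apoptosis induction measured as caspase-3/7 activity (Caspase-Glo 3/7) in DLBCL lines after 3 h treatment at 37 °C; EC50 derived relative to the reference compound's maximal induction, with C0 fixed at 1.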

In the next data set the target is MCL-1 (Homo sapiens, UniProt Q07820). Briefly: Protein-protein interaction assay MCL-1/Noxa BH3 peptide (MCL-1 assay), TR-FRET. It is filed as binding. Conditions: MBP-MCL-1 / Noxa BH3-derived peptide, median. In a few lines: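 Inhibition values were normalized between DMSO controls with all reagents and controls lacking MCL-1. The binding competition used 1 nM MBP-MCL-1 in pH 7 Tris buffer containing 50 mM KF and 100 mM NaCl, with a 10 min compound preincubation at 22 °C.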
Sequence of MCL-1 (Q07820 whole entry): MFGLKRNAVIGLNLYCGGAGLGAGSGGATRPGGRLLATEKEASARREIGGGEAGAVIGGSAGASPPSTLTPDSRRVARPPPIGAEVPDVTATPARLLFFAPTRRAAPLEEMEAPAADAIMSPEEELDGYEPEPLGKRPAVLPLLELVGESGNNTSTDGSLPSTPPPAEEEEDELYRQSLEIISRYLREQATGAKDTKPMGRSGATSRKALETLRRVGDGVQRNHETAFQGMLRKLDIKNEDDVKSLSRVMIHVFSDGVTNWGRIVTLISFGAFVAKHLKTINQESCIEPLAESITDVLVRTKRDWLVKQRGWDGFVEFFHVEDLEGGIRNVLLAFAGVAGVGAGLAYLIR

Data set [5] has as its system SUDHL10. In words: Anti-proliferative effect (CellTiter-Glo, 72 h), SUDHL10. Conditions: SUDHL10 cells, antiproliferation, median, read-out: Antiproli SUDHL10 [M] (median). The class given is cell-based. An outline of the steps: as §1
Data set [6] deals with SUDHL5. In words: Induction of caspase-3/7 activity (Caspase-Glo 3/7), SUDHL5. The class given is cell-based. Conditions: caspase-3/7 induction, SUDHL5 cells, 3 h treatment, median. An outline of the steps:
as §2

[7] abbreviates: Homo sapiens, SU-DHL-5, 72 h, 72 h.
Where [8] appears, read: Homo sapiens, SU-DHL-5, 5 h, read-out: Cytotox SUDHL5 [M] (median), SUDHL5 cells, cytotoxicity induction, CellTiter-Glo, 5 h, median.
[9] abbreviates: Homo sapiens, SU-DHL10, 5 h, read-out: Cytotox SUDHL10 [M] (median), SUDHL10 cells, cytotoxicity induction, CellTiter-Glo, 5 h, median.
Setting [10] is: Homo sapiens, SU-DHL10, 72 h, 72 h.
The mark [11] stands for this setting: read-out: Cytotox SUDHL5 [M] (median), SUDHL5 cells, cytotoxicity induction, CellTiter-Glo, 5 h incubation, median.
The mark [12] stands for this setting: read-out: Cytotox SUDHL10 [M] (median), SUDHL10 cells, cytotoxicity induction, CellTiter-Glo, 5 h incubation, median.

The structures appear in SMILES notation. Structures can show the parent of a compound that is named as a salt. Where two headings read alike, the source gives them in different places. Some results are limits rather than exact numbers.

In the case of `CC(=O)NCc1nn(C)c2c1-c1cccc3c(CCCOc4cccc5ccccc45)c(C(=O)O)n(c13)CCCCOC2` (single isomer, unassigned; enantiomer 1) [Example 340, 3-[(acetylamino)methyl]-1-methyl-7-[3-(naphthalen-1-yloxy)propyl]-1,10,11,12,13,15-hexahydropyrazolo[4′3′:9,10][1,6]oxazacycloundecino[8,7,6-hi]indole-carboxylic Acid (Enantiomer 1)], the IC50 with SUDHL5 [1] (setting [7]) is 4.71e-06 M; in the data set with SUDHL5 [2] (setting [8]) it was 1.56e-05 M; in the data set on A2780 (Homo sapiens, A2780, 72 h) it was more than 3.3e-05 M; in the data set on SUDHL10 [3] (setting [9]), more than 3.3e-05 M; at MCL-1 it was 0.0219 µM; with SUDHL10 [5] (setting [10]) it was more than 3.3e-05 M. Besides, the EC50 with SUDHL10 [4] (Homo sapiens, SU-DHL10, 3 h) is more than 33 µM; in the data set with SUDHL5 [6] (Homo sapiens, SU-DHL-5, 3 h), 21.1 µM.
Consider `Cn1nc(COC(=O)NCC(F)(F)F)c2c1COCCCCn1c(C(=O)O)c(CCCOc3cccc4ccccc34)c3cccc-2c31` (single isomer, unassigned; enantiomer 1) [Example 343, 1-methyl-7-[3-(naphthalen-1-yloxy)propyl]-3-({[(2,2,2-trifluoroethyl)carbamoyl]oxy}methyl)-1,10,11,12,13,15-hexahydropyrazolo[4′,3′:9,10][1,6]oxazacycloundecino[8,7,6-hi]indole-8-carboxylic Acid (Enantiomer 1)], for which the IC50 in the data set with SUDHL5 [1] (setting [7]) was 1.92e-06 M; in the data set on SUDHL5 [2] (setting [8]), more than 3.3e-05 M; with A2780 (Homo sapiens, A2780, 72 h), 1.9e-05 M; in the data set with SUDHL10 [3] (setting [9]), more than 3.3e-05 M; against MCL-1, 0.325 µM; in the data set on SUDHL10 [5] (setting [10]), 1.11e-06 M. For the same compound, the EC50 in the data set with SUDHL10 [4] (Homo sapiens, SU-DHL10, 3 h) is more than 33 µM; in the data set on SUDHL5 [6] (Homo sapiens, SU-DHL-5, 3 h), 29.7 µM.
As to `Cn1nc(CN2CC3(COC3)C2)c2c1COCCCCn1c(C(=O)O)c(CCCOc3cccc4ccccc34)c3cccc-2c31` (single isomer, unassigned; enantiomer 1) [Example 344, 1-methyl-7-[3-(naphthalen-1-yloxy)propyl]-3-(2-oxa-6-azaspiro[3.3]hept-6-ylmethyl)-1,10,11,12,13,15-hexahydropyrazolo[4′,3′:9,10][1,6]oxazacycloundecino[8,7,6-hi]indole-8-carboxylic acid-N-ethylethanamine Salt (Enantiomer 1)], the IC50 in the data set with SUDHL5 [1] (72 h) is 2.08e-05 M; with SUDHL5 [2] (read-out: Cytotox SUDHL5 [M] (median), SUDHL5 cells, cytotoxicity induction, CellTiter-Glo, 5 h, median), more than 3.3e-05 M; in the data set on A2780, more than 3.3e-05 M; with SUDHL10 [3] (read-out: Cytotox SUDHL10 [M] (median), SUDHL10 cells, cytotoxicity induction, CellTiter-Glo, 5 h, median), more than 3.3e-05 M; on MCL-1, 0.433 µM; in the data set with SUDHL10 [5] (72 h), 1.44e-05 M. Also, the EC50 with SUDHL10 [4] and in the data set on SUDHL5 [6] was more than 33 µM throughout.
In the case of `Cc1nn(C)c2c1-c1cccc3c(CCCOc4cccc5c4CCCC5)c(C(=O)O)n(c13)CCCCOC2` (single isomer, unassigned; enantiomer 2) [Example 008, 1,3-dimethyl-7-[3-(5,6,7,8-tetrahydronaphthalen-1-yloxy)propyl]-1,10,11,12,13,15-hexahydropyrazolo[4′3′:9,10][1,6]oxazacycloundecino[8,7,6-hi]indole-8-carboxylic Acid-N-ethylethanamine Salt (Enantiomer 2)], the IC50 with SUDHL5 [1] (72 h incubation) is 2.59e-05 M; with SUDHL5 [2] (setting [11]) it was more than 3.3e-05 M; with A2780 it was 2.46e-05 M; in the data set on SUDHL10 [3] (setting [12]), more than 3.3e-05 M; against MCL-1 it was 0.126 µM; in the data set with SUDHL10 [5] (72 h incubation) it was 1.55e-05 M. For the same compound, the EC50 with SUDHL10 [4] and with SUDHL5 [6] was more than 33 µM in each case.
Consider `Cc1cc(OCCCc2c(C(=O)O)n3c4c(cccc24)-c2c(C)nn(C)c2COCCCC3)cc(C)c1Cl` (single isomer, unassigned; enantiomer 2) [Example 011, 7-[3-(4-chloro-3,5-dimethylphenoxy)propyl]-1,3-dimethyl-1,10,11,12,13,15-hexahydropyrazolo[4′,3′:9,10][1,6]oxazacycloundecino[8,7,6-hi]indole-8-carboxylic Acid-N-ethylethanamine Salt (Enantiomer 2)], for which the IC50 with SUDHL5 [1] (72 h incubation) is 2.02e-05 M; with SUDHL5 [2] (setting [11]) it was more than 3.3e-05 M; with A2780 it was 1.58e-05 M; in the data set on SUDHL10 [3] (setting [12]), more than 3.3e-05 M; against MCL-1, 0.162 µM; in the data set with SUDHL10 [5] (72 h incubation), 1.18e-05 M. The EC50 with SUDHL10 [4] and in the data set on SUDHL5 [6] was more than 33 µM each time.
As to `Cc1nn(C)c2c1-c1cccc3c(CCCOc4cccc5cc(F)ccc45)c(C(=O)O)n(c13)CCCCOC2` (single isomer, unassigned; enantiomer 2) [Example 020, 7-{3-[(6-fluoronaphthalen-1-yl)oxy]propyl}-1,3-dimethyl-1,10,11,12,13,15-hexahydropyrazolo[4′,3′:9,10][1,6]oxazacycloundecino[8,7,6-hi]indole-8-carboxylic Acid-N-ethylethanamine Salt (Enantiomer 2)], the IC50 with SUDHL5 [1] (72 h incubation) is 1.72e-05 M; in the data set with SUDHL5 [2] (setting [11]) it was 2.31e-05 M; in the data set with A2780, 1.37e-05 M; in the data set with SUDHL10 [3] (setting [12]) it was more than 3.3e-05 M; at MCL-1, 0.0646 µM; with SUDHL10 [5] (72 h incubation), 6.75e-06 M. The EC50 with SUDHL10 [4] and in the data set with SUDHL5 [6] was more than 33 µM throughout.
For the compound `Cc1ccc2c(CCCOc3cccc4ccccc34)c(C(=O)O)n3c2c1-c1c(C)nn(C)c1COCCCC3` (single isomer, unassigned; enantiomer 2) [Example 029, 1,3,4-trimethyl-7-[3-(naphthalen-1-yloxy)propyl]-1,10,11,12,13,15-hexahydropyrazolo[4′,3′:9,10][1,6]oxazacycloundecino[8,7,6-hi]indole-8-carboxylic acid-N-ethylethanamine Salt (Enantiomer 2)], the IC50 is 1.82e-05 M in the data set with SUDHL5 [1] (72 h incubation); more than 3.3e-05 M in the data set with SUDHL5 [2] (setting [11]); 2.01e-05 M with A2780; more than 3.3e-05 M in the data set with SUDHL10 [3] (setting [12]); 0.22 µM against MCL-1; 1.38e-05 M in the data set with SUDHL10 [5] (72 h incubation). Besides, the EC50 in the data set on SUDHL10 [4] and in the data set with SUDHL5 [6] was more than 33 µM each time.
In the case of `Cc1cc2c(OCCCc3c(C(=O)O)n4c5c(cccc35)-c3c(C)nn(C)c3COCCCC4)cccc2cc1F` (single isomer, unassigned; enantiomer 2) [Example 051, 7-{3-[(6-fluoro-7-methylnaphthalen-1-yl)oxy]propyl}-1,3-dimethyl-1,10,11,12,13,15-hexahydropyrazolo[4′,3′:9,10][1,6]oxazacycloundecino[8,7,6-hi]indole-8-carboxylic acid-N-ethylethanamine Salt (Enantiomer 2)], the IC50 in the data set on SUDHL5 [1] (72 h incubation) worked out at 8.91e-06 M; with SUDHL5 [2] (setting [11]), 3e-05 M; in the data set on A2780 it was 1.53e-05 M; in the data set with SUDHL10 [3] (setting [12]), 2.02e-05 M; against MCL-1, 0.0737 µM; with SUDHL10 [5] (72 h incubation), 4.39e-06 M. In addition, the EC50 in the data set with SUDHL10 [4] and in the data set on SUDHL5 [6] was more than 33 µM each time.
Regarding `Cc1c2c(nn1C)CN(C)CCCCn1c(C(=O)O)c(CCCOc3cccc4ccccc34)c3cccc-2c31` (single isomer, unassigned; enantiomer 2) [Example 069, 2,3,14-trimethyl-7-[3-(naphthalen-1-yloxy)propyl]-10,11,12,13,14,15-hexahydro-2H-pyrazolo[3′,4′:8,9][1,6]diazacycloundecino[10,11,1-hi]indole-8-carboxylic Acid (Enantiomer 2)], the IC50 was more than 3.3e-05 M with SUDHL5 [1] (72 h incubation); more than 3.3e-05 M with SUDHL5 [2] (setting [11]); more than 3.3e-05 M in the data set on A2780; more than 3.3e-05 M in the data set with SUDHL10 [3] (setting [12]); 0.162 µM on MCL-1; 2.11e-05 M with SUDHL10 [5] (72 h incubation). Further, the EC50 with SUDHL10 [4] and in the data set on SUDHL5 [6] was more than 33 µM in each case.
